Laboratory results as given in patent US10167300B2, “Metalloenzyme inhibitor compounds as fungicides” (priority 2014, dated 2019).
Read-outs that look alike come from different tables or passages of the source.

Experiments:
Assay type in all cases: in vivo, Mycosphaerella graminicola on wheat plants (variety Yuma)
[1] = test system: Mycosphaerella graminicola; Anamorph: Septoria tritici; Bayer Code SEPTTR (standard laboratory isolate, SI SEPTTR); assay: Type A (high volume) assay, leaf blotch of wheat, standard laboratory SEPTTR isolate (SI SEPTTR); conditions: Zymoseptoria tritici
Protocol: (§1) Example A: Evaluation of Fungicidal Activity: Leaf Blotch of Wheat (Mycosphaerella graminicola; Anamorph: Septoria tritici; Bayer Code SEPTTR)
(§2) For Type A assays, technical grades of the experimental fungicides in Table 4 below were dissolved in acetone, and then mixed with nine volumes of water containing 110 ppm Triton X-100. The fungicide solutions were applied onto wheat seedlings using an automated booth sprayer. For Type B assays, emulsifiable concentrate (EC) formulations of technical grades of the experimental fungicides in Table 4 below were prepared at 10% (w/v), and then mixed with 150 volumes of 0.1% Trycol 5941. These solutions were applied onto wheat seedlings using an automated track sprayer at 200 L/ha. All sprayed plants were allowed to air dry prior to further handling.
(§3) Wheat plants (variety Yuma) were grown from seed in a greenhouse in 50% mineral soil/50% soil-less Metro mix until the first leaf was fully emerged, with 7-10 seedlings per pot. Prior to or after application of experimental fungicides, plants were inoculated either with spores of a standard laboratory SEPTTR isolate (SI SEPTTR) or with spores from a SEPTTR field isolate collected from Wellsbourne, England in 2012 (FI SEPTTR). After inoculation the plants were kept for 3 days at 20° C. in 100% relative humidity (one day in a dark dew chamber followed by two days in a lighted dew chamber). Plants were then transferred to a 20° C. greenhouse for disease development. When disease symptoms were fully expressed on untreated plants, infection levels on treated plants were assessed on a scale of 0 to 100 percent disease severity. Percent disease control was calculated using the ratio of disease severity on treated plants relative to untreated plants.

[2] = test system: Mycosphaerella graminicola; Anamorph: Septoria tritici; Bayer Code SEPTTR (standard laboratory isolate, SI SEPTTR); assay: Type B (low volume, EC formulation, track sprayer 200 L/ha) assay, leaf blotch of wheat, standard laboratory SEPTTR isolate (SI SEPTTR); conditions: Zymoseptoria tritici, 72 h
Protocol: as §1, §2, §3

[3] = Type B (low volume, EC formulation, track sprayer 200 L/ha) assay, leaf blotch of wheat, SEPTTR field isolate (FI SEPTTR); conditions: Zymoseptoria tritici, 72 h
Summary of the method: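 Wheat seedlings (Yuma, first leaf emerged) sprayed with acetone/Triton X-100 solutions (Type A) or 10% EC diluted in 0.1% Trycol at 200 L/ha (Type B), inoculated before or after spraying. Inoculated plants held 3 days at 20 °C, 100% RH, then greenhouse; % disease control from severity versus untreated plants.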

[4] = 24 h, standard laboratory isolate, high volume, 50 ppm, 1 Day Protectant, wheat (Yuma), read-out: Disease Control, SI SEPTTR Type A Assay (50 ppm) 1 DP
[5] = standard laboratory isolate, low volume EC, 100 g/ha, 3 Day Curative, wheat (Yuma), read-out: Disease Control, SI SEPTTR Type B Assay (100 g/ha) 3 DC
[6] = standard laboratory isolate, low volume EC, 100 g/ha, 3 Day Protectant, wheat (Yuma), read-out: Disease Control, SI SEPTTR Type B Assay (100 g/ha) 3 DP
[7] = field isolate, low volume EC, 100 g/ha, 3 Day Curative, wheat (Yuma), read-out: Disease Control, FI SEPTTR Type B Assay (100 g/ha) 3 DC
[8] = field isolate, low volume EC, 100 g/ha, 3 Day Protectant, wheat (Yuma), read-out: Disease Control, FI SEPTTR Type B Assay (100 g/ha) 3 DP
[9] = 72 h, standard laboratory isolate, high volume, 50 ppm, 3 Day Curative, wheat (Yuma), read-out: Disease Control, SI SEPTTR Type A Assay (50 ppm) 3 DC

| SMILES | pest or weed control at 50 ppm [1, 4] | pest or weed control at 100 g/ha [2, 5] | pest or weed control at 100 g/ha [2, 6] | pest or weed control at 100 g/ha [3, 7] | pest or weed control at 100 g/ha [3, 8] | further results |
| --- | --- | --- | --- | --- | --- | --- |
| CSc1ccc(-c2ccc(C(O)(c3cncnc3)C(C)(C)C)nc2)cc1 (stereo not drawn) [Compound 98] | 80 to 100% | 80 to 100% | 80 to 100% | 80 to 100% | 80 to 100% | – |
| CC(C)(C)C(O)(c1cncnc1)c1ccc(-c2ccc(OC(F)(F)F)cc2)cn1 (stereo not drawn) [Compound 27, 2,2-dimethyl-1-(pyrimidin-5-yl)-1-(5-(4-(trifluoro-methoxy)phenyl)pyridin-2-yl)propan-1-ol] | 80 to 100% | 80 to 100% | 80 to 100% | 80 to 100% | 80 to 100% | pest or weed control at 50 ppm [1, 9]: 80 to 100% |
| CC(C)(C)c1ccc(-c2ccc(C(O)(c3cncnc3)C(C)(C)C)nc2)cc1 (stereo not drawn) [Compound 97] | 80 to 100% | 80 to 100% | 80 to 100% | 80 to 100% | 80 to 100% | – |
| CC(C)(C)C(O)(c1cccnc1)c1ccc(-c2ccc(OCC(F)(F)F)cc2)cn1 (stereo not drawn) [Compound 92] | 80 to 100% | 80 to 100% | 80 to 100% | 80 to 100% | 80 to 100% | – |
| CC(=O)c1ccc(-c2ccc(C(O)(c3cncnc3)C(C)(C)C)nc2)cc1 (stereo not drawn) [Compound 101] | 80 to 100% | 80 to 100% | 80 to 100% | 80 to 100% | 80 to 100% | – |
| COC(c1cncnc1)(c1ccc(-c2ccc(OC(F)(F)F)cc2)cn1)C(C)(C)C (stereo not drawn) [Compound 277, 5-(1-methoxy-2,2-dimethyl-1-(5-(4-(trifluoromethoxy)phenyl)pyridin-2-yl)propyl)pyrimidine] | – | – | – | – | – | pest or weed control at 100 g/ha ([2]; SEPTTR standard laboratory isolate, low volume Type B assay, 100 g/ha, 3 Day Curative, wheat leaf blotch, read-out: Disease Control, SI SEPTTR Type B Assay (100 g/ha) 3 DC): 80 to 100%; pest or weed control at 100 g/ha ([2]; SEPTTR standard laboratory isolate, low volume Type B assay, 100 g/ha, 3 Day Protectant, wheat leaf blotch, read-out: Disease Control, SI SEPTTR Type B Assay (100 g/ha) 3 DP): 80 to 100%; pest or weed control at 100 g/ha ([3]; SEPTTR field isolate, low volume Type B assay, 100 g/ha, 3 Day Curative, wheat leaf blotch, read-out: Disease Control, FI SEPTTR Type B Assay (100 g/ha) 3 DC): 80 to 100%; pest or weed control at 100 g/ha ([3]; SEPTTR field isolate, low volume Type B assay, 100 g/ha, 3 Day Protectant, wheat leaf blotch, read-out: Disease Control, FI SEPTTR Type B Assay (100 g/ha) 3 DP): 80 to 100% |
| Cc1cc(OC(F)(F)F)ccc1-c1ccc(C(O)(c2cncnc2)C(C)(C)C)nc1 (stereo not drawn) [Compound 117] | 80 to 100% | 80 to 100% | 80 to 100% | 80 to 100% | 80 to 100% | – |
| CC(C)(C)C(O)(c1cccnc1)c1ccc(-c2ccc(OC(F)F)cc2)cn1 (stereo not drawn) [Compound 82] | 80 to 100% | 80 to 100% | 80 to 100% | 80 to 100% | 80 to 100% | – |
| CC(C)(C)C(O)(c1cncnc1)c1ccc(-c2ccc(C3(C#N)CC3)cc2)cn1 (stereo not drawn) [Compound 105] | 80 to 100% | 80 to 100% | 80 to 100% | 80 to 100% | 80 to 100% | – |
| CC(C)C(O)(c1cncnc1)c1ccc(-c2ccc(OCC(F)(F)F)nc2)cn1 (stereo not drawn) [Compound 64] | 80 to 100% | 80 to 100% | 80 to 100% | 60 to 79% | 80 to 100% | pest or weed control at 50 ppm [1, 9]: 80 to 100% |
| CC(C)(C#N)c1ccc(-c2ccc(C(O)(c3cncnc3)C(C)(C)C)nc2)cc1 (stereo not drawn) [Compound 152] | 80 to 100% | 80 to 100% | 80 to 100% | 80 to 100% | 80 to 100% | – |
| OC(c1ccc(-c2ccc(OC(F)(F)F)cc2)cn1)(c1cncs1)C1CC1 (stereo not drawn) [Compound 89] | 80 to 100% | 80 to 100% | 80 to 100% | 40 to 59% | 60 to 79% | – |
| CC(C)(C)C(O)(c1cncnc1)c1ccc(-c2ccc([Si](C)(C)C)cc2)cn1 (stereo not drawn) [Compound 121] | – | – | – | – | – | pest or weed control at 50 ppm ([1]; 24 h, read-out: Disease Control, SI SEPTTR Type A Assay (50 ppm) 1 DP): 80 to 100%; pest or weed control at 100 g/ha ([2]; read-out: Disease Control, SI SEPTTR Type B Assay (100 g/ha) 3 DC): 80 to 100%; pest or weed control at 100 g/ha ([2]; read-out: Disease Control, SI SEPTTR Type B Assay (100 g/ha) 3 DP): 80 to 100%; pest or weed control at 100 g/ha ([3]; read-out: Disease Control, FI SEPTTR Type B Assay (100 g/ha) 3 DC): 80 to 100%; pest or weed control at 100 g/ha ([3]; read-out: Disease Control, FI SEPTTR Type B Assay (100 g/ha) 3 DP): 60 to 79% |
| Cc1ncncc1C(O)(c1ccc(-c2ccc(OC(F)(F)F)cc2F)cn1)C(C)(C)C (stereo not drawn) [Compound 157] | 80 to 100% | 80 to 100% | 80 to 100% | 80 to 100% | 80 to 100% | – |
| CCC(C)(C)C(O)(Cc1cncnc1)c1ccc(-c2ccc(Cl)cc2)cn1 (stereo not drawn) [Compound 57] | 80 to 100% | 80 to 100% | 80 to 100% | < 40% | < 40% | pest or weed control at 50 ppm [1, 9]: 80 to 100% |
| CC(C)(C)C(O)(c1ccc(-c2ccc(OC(F)(F)F)cc2)cn1)c1cncs1 (stereo not drawn) [Compound 84] | 80 to 100% | 80 to 100% | 80 to 100% | 60 to 79% | 60 to 79% | – |
| CC(C)(C)C(O)(c1cccnc1)c1ccc(-c2ccc(C3(C#N)CC3)cc2)cn1 (stereo not drawn) [Compound 145] | 80 to 100% | 80 to 100% | 60 to 79% | 80 to 100% | 80 to 100% | – |
| OC(c1cncnc1)(c1ccc(Oc2ccc(Cl)cn2)cn1)C1CC1 (stereo not drawn) [Compound 14] | 80 to 100% | 60 to 79% | 60 to 79% | 40 to 59% | 60 to 79% | pest or weed control at 50 ppm [1, 9]: 80 to 100% |
| Cc1cc(OC(F)(F)F)ccc1-c1ccc(C(O)(c2cccnc2)C(C)(C)C)nc1 (stereo not drawn) [Compound 146] | 80 to 100% | 80 to 100% | 80 to 100% | 80 to 100% | 60 to 79% | – |
| Cc1ccncc1C(O)(c1ccc(-c2ccc(OC(F)(F)F)cc2)cn1)C(C)(C)C (stereo not drawn) [Compound 149] | – | 80 to 100% | 60 to 79% | 80 to 100% | 60 to 79% | – |
| OC(c1cncnc1)(c1ccc(-c2ccc(OC(F)F)cc2)cn1)C1CC1 (stereo not drawn) [Compound 60] | 80 to 100% | 80 to 100% | 80 to 100% | < 40% | 60 to 79% | pest or weed control at 50 ppm [1, 9]: 80 to 100% |
| OC(c1cncnc1)(c1ccc(Oc2ccc(C(F)(F)F)cc2)cn1)C1CC1 (stereo not drawn) [Compound 17] | 80 to 100% | 80 to 100% | 80 to 100% | 60 to 79% | 60 to 79% | pest or weed control at 50 ppm [1, 9]: 80 to 100% |
| Cc1ncccc1C(O)(c1ccc(-c2ccc(OC(F)(F)F)cc2)cn1)C(C)(C)C (stereo not drawn) [Compound 151] | 80 to 100% | 80 to 100% | 80 to 100% | – | – | – |
